We go through five compounds from patent US20250206751A1, “HETEROCYCLIC COMPOUND FOR INDUCING DEGRADATION OF G12D MUTANT KRAS PROTEIN” (Astellas Pharma Inc., priority 2022, published 2025).

Assay [1] has as its system human G12D mutant KRAS-positive pancreatic cancer line AsPC-1. Description: Non-anchorage-dependent cell growth inhibition, spheroid 3D cell culture (Test Example 3). In kind it is cell-based. Particulars: AsPC-1 spheroid 3D culture, 6 days, CellTiter Glo 2.0. An outline of the steps:
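AsPC-1 spheroids, 5×10^2 cells per well on low-adhesion round-bottom plates in RPMI 1640/10% FBS, dosed next day at 10 or 6 points spanning 10 μM to 0.3 nM final for 6 days at 37° C., 5% CO2. Viability by CellTiter Glo 2.0 luminescence; IC50 by Sigmoid-Emax regression, DMSO 100% and cell-free medium 0%.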
For orientation: Cellular ATP, detected with luciferase, serves as a proxy for viable cell number.

In assay [2] the test system is human KRAS G12D mutant-positive PK-59 pancreatic cancer cell line-derived xenograft. Description: Anti-tumor activity in PK-59 xenograft mice (Test Example 4). Particulars: 10 mg/kg into tail vein, once a week, twice in total; PK-59 xenograft nude mice. In kind it is in vivo. As to the method: Test Example 4: Evaluation of Anti-Tumor Activity in Human KRAS G12D Mutant -Positive PK-59 Pancreatic Cancer Cell Line-Derived Xenograft Mice
PK-59 cells (RIKEN BRC, RCB1901) were cultured using a RPMI 1640 medium containing 10% fetal bovine serum in the presence of 5% CO2 at 37° C. The PK-59 cells were collected and suspended in PBS, and after adding an equal amount of Matrigel (from Becton, Dickinson and Company), 4-5-week-old male nude mice (CAnN.Cg-Foxn1^nu/CrlCrlj (nu/nu), from Charles River Laboratories Japan) were subcutaneously inoculated with the cell suspension of 1.0-2.0×10^7 cells/mL in a volume of 100 μL per mouse. About two weeks after the inoculation, the mice were divided into groups so that all the groups had approximately the same tumor volume and body weight, and administration of test compounds was started on the next day. The study was conducted for 5 mice each of a vehicle group and test compound administration groups. The compounds were dissolved in a solvent containing ethanol (from FUJIFILM Wako Pure Chemical Corporation), a 5% glucose solution (from Otsuka Pharmaceutical), 1M hydrochloric acid (from Kanto Chemical Co., Inc.), 50% (2-hydroxypropyl)-β-cyclodextrin (HP-βCD) solution (from ROQUETTE), HCO-40 (from Nikko Chemicals Co., Ltd.) and 1M sodium hydroxide solution (from Kanto Chemical Co., Inc.) at a liquid amount ratio of 4:84.4:1.1:1:9:0.5. The test compounds dissolved in the respective solvent for the test compound administration groups and the solvent for the vehicle group were administered into tail vein. The administration was performed once a week and twice in total. The tumor sizes and the body weights were measured twice a week. The tumor volumes were calculated using the following equation.
[Tumor volume (mm^3)]=[Long diameter of the tumor (mm)]×[Short diameter of the tumor (mm)]^2×0.5
The tumor growth inhibition rate (%) by the test compounds were calculated with the tumor volumes of the test compound administration groups on the previous day of the start of the administration taken as 100% inhibition and the tumor volumes of the vehicle groups two weeks after the initial administration taken as 0% inhibition. In addition, when the tumor volume of a test compound administration group was smaller than the tumor volume on the previous day of the start of the administration, the tumor regression rate (%) by the test compound was calculated with the tumor volume on the previous day of the start of the administration taken as 0% regression and with the tumor volume 0 taken as 100% regression.

`CCn1nccc1-c1ccc([C@H](CO)NC(=O)[C@@H]2C[C@@H](O)CN2C(=O)[C@H](C(C)C)n2cc(-c3ccc(COc4c(-c5c(C)c(F)cc6[nH]ncc56)c(C5CC5)cc5c(N(C)[C@H]6CCNC6)nc(OC[C@H](C)OC)nc45)cc3)nn2)cc1` (atropisomer, axis not shown; (M)) [Example 13] returned an IC50 in assay [1] (Homo sapiens, ASPC1, 144 h) of 10 nM. In assay [2], the “Anti-Tumor Activity Two Weeks After Initial Administration: tumor regression rate” value is on record as 26% regression.
Turning to `CO[C@@H](C)COc1cc(N(C)[C@H]2CCNC2)c2cc(C3CC3)c(-c3c(C)c(F)cc4[nH]ncc34)c(OCc3ccc(-c4cn([C@H](C(=O)N5C[C@H](O)C[C@H]5C(=O)N[C@@H](CO)c5ccc(-c6scnc6C)cc5)C(C)C)nn4)cc3)c2n1` (atropisomer, axis not shown; (M)) [Example 11, (4R)-1-[(2S)-2-{4-[4-({[(7M)-6-cyclopropyl-7-(6-fluoro-5-methyl-1H-indazol-4-yl)-2-[(2S)-2-methoxypropoxy]-4-{methyl[(3S)-pyrrolidin-3-yl]amino}quinazolin-8-yl]oxy}methyl)phenyl]-1H-1,2,3-triazol-1-yl}-3-methylbutanoyl]-4-hydroxy-N-{(1R)-2-hydroxy-1-[4-(4-methyl-1,3-thiazol-5-yl)phenyl]ethyl}-L-prolinamide], the IC50 in assay [1] came out at 19 nM. In assay [2], the “Anti-Tumor Activity Two Weeks After Initial Administration: tumor regression rate” value came to 6% regression.
In the case of `Cc1ncsc1-c1ccc([C@H](CO)NC(=O)[C@@H]2C[C@@H](O)CN2C(=O)[C@H](C(C)C)n2cc(-c3ccc(COc4c(-c5c(C)c(F)cc6[nH]ncc56)c(C5CC5)cc5c(N(C)[C@H]6CCNC6)nc(OC[C@H]6CCCO6)nc45)cc3)nn2)cc1` (atropisomer, axis not shown; (M)) [Example 9, (4R)-1-[(2S)-2-{4-[4-({[(7M) 6-cyclopropyl-7-(6-fluoro-5-methyl-1H-indazol-4-yl)-4-{methyl[(3S)-pyrrolidin-3-yl]amino}-2-{[(2R)-oxolan-2-yl]methoxy}quinazolin-8-yl}oxy}methyl)phenyl]-1H-1,2,3-triazol-1-yl}-3-methylbutanoyl]-4-hydroxy-N-{(1R)-2-hydroxy-1-[4-(4-methyl-1,3-thiazol-5-yl)phenyl]ethyl}-L-prolinamide], 9 nM corresponded to half-maximal inhibition in assay [1] (Homo sapiens, ASPC1, 144 h) (IC50). Also, the “Anti-Tumor Activity Two Weeks After Initial Administration: tumor growth inhibition rate” value in assay [2] was found to be 81% inhibition.
`CCN(c1nc(OC[C@H](C)OC)nc2c(OCc3ccc(-c4cn([C@H](C(=O)N5C[C@H](O)C[C@H]5C(=O)N[C@@H](CO)c5ccc(-c6scnc6C)cc5)C(C)C)nn4)cc3)c(-c3c(C)c(F)cc4[nH]ncc34)c(C3CC3)cc12)[C@H]1CCNC1` (atropisomer, axis not shown; (M)) [Example 50, (4R)-1-[(2S)-2-(4-{4-[({(7M)-6-cyclopropyl-4-{ethyl[(3S)-pyrrolidin-3-yl]amino}-7-(6-fluoro-5-methyl-1H-indazol-4-yl)-2-[(2S)-2-methoxypropoxy]quinazolin-8-yl}oxy)methyl)phenyl}-1H-1,2,3-triazol-1-yl)-3-methylbutanoyl]-4-hydroxy-N-{(1R)-2-hydroxy-1-[4-(4-methyl-1,3-thiazol-5-yl)phenyl]ethyl}-L-prolinamide] showed an IC50 in assay [1] (Homo sapiens, ASPC1, 144 h) of 8 nM. The “Anti-Tumor Activity Two Weeks After Initial Administration: tumor regression rate” value in assay [2] turned out to be 20% regression.
The compound `CO[C@@H](C)COc1nc(N(C)[C@@H]2CCNC2)c2cc(C3CC3)c(-c3c(C)c(F)cc4[nH]ncc34)c(OCc3ccc(-c4cn([C@H](C(=O)N5C[C@H](O)C[C@H]5C(=O)N[C@@H](CO)c5ccc(-c6scnc6C)cc5)C(C)C)nn4)cc3)c2n1` (atropisomer, axis not shown; (M)) [Example 53] had a 50% inhibitory concentration (IC50) in assay [1] (Homo sapiens, ASPC1, 144 h) of 10 nM. The “Anti-Tumor Activity Two Weeks After Initial Administration: tumor regression rate” value in assay [2] stood at 53% regression.

Broadly, the IC50 is the concentration needed to halve the response being measured. A low value points to greater potency.
